Patent US20060166969A1, “AMPA antagonists for the treatment of dizziness, including vertigo and Meniere's disorder” (priority 2005, published 2006)

Legend:
[1] = tested on: dizziness, including vertigo and Menière's disorder; test: Animal models for dizziness, including vertigo and Menière's disorder; assay type: in vivo; conditions: animal models not specified; no data given
Excerpt: Animal models for dizziness, vertigo and Menière's disorder include, but are not limited
Electronystagmography in rats (see Fischer, A. J. et al., “Electronystagmography in the laboratory rat”, Acta Otolaryngol., 88, 412-419,1979).
Gentamycin induced nystagmus in guinea pigs (see Okuda, T. et al., “Inner ear changes with intracochlear gentamicin administration in Guinea pigs”, Laryngoscope, 114, 694-697, 2004).
Unilateral peripheral vestibular deafferentation in guinea pigs (see Dutia, M. B. et al., “The opioid receptor antagonist, naloxone, enhances ocular motor compensation in guinea pig following peripheral vestibular deafferentation”, Exp. Neurol., 141,141-144,1996), or rats (see Guilding, C. et al., “11-Beta-hydroxysteroid dehydrogenase type 1 activity in medial vestibular nucleus and cerebellum after unilateral vestibular deafferentation in the rat”, Stress, 7(2),127-130, 2004).
Unilateral labyrinthectomy in rats (see Johnston, A. R. et al., “Differential regulation of GABA(A) and GABA(B) receptors during vestibular compensation”, Neuroreport.;12(3), 597-600, 2001; and Inoue, S. et al., “Glutamate release in the rat medial vestibular nucleus following unilateral labyrinthectomy using in vivo microdialysis”, Brain Res., 991(1-2), 78-83, 2003). […]

AMPA receptors = conditions: qualitative statement; affinity for AMPA receptors said to have been published; cited from earlier work

In the case of `Cc1nc2n(c1C)N=C(c1ccccc1)c1cc3c(cc1C2)OCO3` [8,9-dimethyl-5-phenyl-11H-1,3-dioxolo[4,5-h]imidazo[1,2-c][2,3]benzo-diazepine], the “activity in animal models for dizziness, including vertigo and Menière's disorder” value [1] is given as “active” and the “AMPA receptor antagonistic activity” value (AMPA receptors) is given as “AMPA receptor antagonistic activity”.
